Results on eight molecules are retold here after ChEMBL document CHEMBL1201862, “PubChem BioAssay data set” (2004).

Some test systems named below: 786-0; A498; BT-549; DU-145; HOP-62; MCF7; MOLT-4; NCI-H226; NCI-H23; OVCAR-3; OVCAR-4; RPMI-8226; SF-295; SK-MEL-2; SK-MEL-5; SK-OV-3; SNB-75; T47D; UACC-257.
Assay in all cases: DTP human tumour cell line panel, 48 h

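All cell lines were grown in 96-well plates and treated with compound for 48 hours. GI50 = concentration required for 50% inhibition of growth.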 The source made the active and inactive calls. Cut-off read from the data, not from the text of the source: active = GI50 up to about 1.1 µM and inactive = higher.

Regarding `CC(C)c1ccc2c(c1)CCC1C(C)(CN)CCCC21C` (configuration not stated), the GI50 in the experiment on 786-0 is 1.56 µM (inactive); in the experiment with A498 it was 1.61 µM (inactive); in the experiment with BT-549, 1.88 µM (inactive); in the experiment with DU-145, 1.77 µM (inactive); with HOP-62, 1.75 µM (inactive); in the experiment with MCF7, 1.44 µM (inactive). Also, the GI50 in the experiment on MOLT-4 was 1.32 µM (inactive); with NCI-H226 it was 1.91 µM (inactive); in the experiment on NCI-H23 it was 1.7 µM (inactive); in the experiment on OVCAR-3 it was 1.7 µM (inactive); in the experiment with OVCAR-4, 1.61 µM (inactive); in the experiment with RPMI-8226 it was 0.653 µM (active). Besides, the GI50 is 1.82 µM (inactive) with SF-295; 1.73 µM (inactive) in the experiment with SK-MEL-2; 1.8 µM (inactive) in the experiment with SK-MEL-5; 2.11 µM (inactive) in the experiment on SK-OV-3; 1.94 µM (inactive) in the experiment with SNB-75; 1.45 µM (inactive) in the experiment on T47D. Further, the GI50 with UACC-257 was 1.69 µM (inactive).

For `COc1ccccc1Cn1c2c(c3c(C(=O)NCCN(C)C)c(O)ccc31)C(=O)c1ccccc1C2=O`, the GI50 in the experiment on 786-0 is 0.409 µM (active); in the experiment with A498 it was 5.26 µM (inactive); with BT-549, 7.13 µM (inactive); in the experiment on DU-145, 1.81 µM (inactive); in the experiment with HOP-62, 1.92 µM (inactive); with MCF7 it was 1.47 µM (inactive). For the same molecule, the GI50 with MOLT-4 is 1.06 µM (active); in the experiment with NCI-H226, 10.4 µM (inactive); with NCI-H23, 1.83 µM (inactive); in the experiment with OVCAR-3, 1.99 µM (inactive); in the experiment with OVCAR-4 it was 1.65 µM (inactive); in the experiment with RPMI-8226, 0.78 µM (active). In addition, the GI50 with SF-295 is 1.87 µM (inactive); in the experiment on SK-MEL-2, 1.69 µM (inactive); in the experiment with SK-MEL-5, 1.74 µM (inactive); in the experiment on SK-OV-3, 6.52 µM (inactive); in the experiment with SNB-75 it was 1.55 µM (inactive); in the experiment on T47D, 2.16 µM (inactive). Moreover, in the experiment on UACC-257, the GI50 is 1.79 µM (inactive).

Consider `CCC(=O)C(c1ccccc1)c1ccccn1` (configuration not stated), for which the GI50 in the experiment on 786-0, in the experiment on A498, in the experiment with BT-549, with DU-145, with HOP-62 and with MCF7 was > 100 µM (inactive) in each case. Further, the GI50 with NCI-H226 is > 100 µM (inactive); in the experiment on NCI-H23, > 100 µM (inactive); with OVCAR-3, 13.8 µM (inactive); in the experiment with OVCAR-4, > 100 µM (inactive); in the experiment on RPMI-8226, > 100 µM (inactive); in the experiment with SF-295, > 100 µM (inactive). For the same molecule, the GI50 in the experiment on SK-MEL-2, with SK-MEL-5, with SK-OV-3, in the experiment with SNB-75, in the experiment with T47D and in the experiment on UACC-257 was > 100 µM (inactive) in each case.

With `CCC[C@H](N[S+]([O-])c1ccc(C)cc1)C(C(=O)OCC)=C(c1ccccc1)c1ccccc1` (some centres not stated), the GI50 in the experiment with 786-0 was 18.1 µM (inactive); in the experiment with A498 it was 19.7 µM (inactive); in the experiment on BT-549, 21.2 µM (inactive); in the experiment with DU-145, 18.9 µM (inactive); in the experiment on HOP-62, 19 µM (inactive); in the experiment on MCF7, 16.6 µM (inactive). Besides, the GI50 with MOLT-4 was 16.2 µM (inactive); in the experiment with NCI-H226, 26.1 µM (inactive); in the experiment with NCI-H23, 27.1 µM (inactive); in the experiment with OVCAR-4, 16.7 µM (inactive); in the experiment on RPMI-8226, 18.7 µM (inactive); in the experiment on SF-295 it was 17.8 µM (inactive). For the same molecule, the GI50 was 14.5 µM (inactive) with SK-MEL-2; 22.1 µM (inactive) in the experiment with SK-MEL-5; 24.6 µM (inactive) with SK-OV-3; 17.8 µM (inactive) in the experiment on SNB-75; 16.8 µM (inactive) in the experiment on T47D; 16.1 µM (inactive) with UACC-257.

With `NC(=O)NNC(=O)c1nc[nH]c1[N+](=O)[O-]`, the GI50 in the experiment on 786-0, in the experiment with A498, in the experiment on BT-549, in the experiment with DU-145, in the experiment on HOP-62 and in the experiment with MCF7 was > 100 µM (inactive) each time. Further, the GI50 in the experiment on MOLT-4, in the experiment on NCI-H226, in the experiment on NCI-H23, in the experiment on OVCAR-3, in the experiment on OVCAR-4 and in the experiment on RPMI-8226 was > 100 µM (inactive) each time. The GI50 in the experiment with SK-MEL-2, in the experiment on SK-MEL-5, in the experiment with SK-OV-3, with SNB-75, in the experiment on T47D and in the experiment on UACC-257 was > 100 µM (inactive) throughout.

In the case of `CCOC(=O)C(CC(C)C)NC(=O)CSc1nnc(COc2ccc(Cl)cc2)n1-c1ccccc1` (configuration not stated), the GI50 in the experiment on 786-0 is 15.3 µM (inactive); in the experiment with A498, 12.7 µM (inactive); with BT-549, 17.7 µM (inactive); with DU-145, 17.1 µM (inactive); with HOP-62, 19.4 µM (inactive); with MCF7, 18.5 µM (inactive). Besides, the GI50 is 4.51 µM (inactive) in the experiment on MOLT-4; 22.4 µM (inactive) with NCI-H226; 16 µM (inactive) in the experiment with NCI-H23; 10.5 µM (inactive) with OVCAR-3; 16.2 µM (inactive) with OVCAR-4; 16.4 µM (inactive) in the experiment with RPMI-8226. For the same molecule, the GI50 was 16.3 µM (inactive) with SK-MEL-2; 17.1 µM (inactive) in the experiment on SK-MEL-5; 27.2 µM (inactive) with SK-OV-3; 16.5 µM (inactive) in the experiment on SNB-75; 14.4 µM (inactive) in the experiment on T47D; 11.2 µM (inactive) in the experiment on UACC-257.

Consider `O=[N+]([O-])c1ccccc1S(=O)(=O)N1CCCc2cc(Cl)ccc21`, for which the GI50 in the experiment with 786-0 was > 85.1 µM (inactive); with A498, 27.2 µM (inactive); in the experiment with BT-549, 8.91 µM (inactive); with DU-145, > 90.6 µM (inactive); in the experiment on HOP-62 it was 60.3 µM (inactive); in the experiment with MCF7, 28.2 µM (inactive). In addition, the GI50 in the experiment with MOLT-4 is 6.35 µM (inactive); in the experiment on NCI-H226, > 100 µM (inactive); in the experiment with NCI-H23, 34 µM (inactive); with OVCAR-3, 26.2 µM (inactive); with OVCAR-4 it was > 100 µM (inactive); in the experiment with RPMI-8226 it was 9.02 µM (inactive). The GI50 in the experiment with SF-295 was 23.5 µM (inactive); in the experiment on SK-MEL-2, > 52.6 µM (inactive); in the experiment on SK-MEL-5, 19.6 µM (inactive); in the experiment on SK-OV-3 it was 26.9 µM (inactive); with SNB-75, 4.59 µM (inactive); with T47D, 15.3 µM (inactive). Also, the GI50 in the experiment on UACC-257 is 12.6 µM (inactive).

As for `O=C(O)C(O)C(O)C(O)C(O)c1nc2ccccc2s1` (configuration not stated), the GI50 in the experiment on 786-0 was 16.8 µM (inactive); in the experiment on A498 it was 24.6 µM (inactive); in the experiment with BT-549 it was 26.3 µM (inactive); in the experiment with DU-145, 16.8 µM (inactive); in the experiment with HOP-62, 18.3 µM (inactive); in the experiment with MCF7, 17.1 µM (inactive). The GI50 is 29.8 µM (inactive) with NCI-H226; 23.2 µM (inactive) in the experiment on NCI-H23; 17.5 µM (inactive) in the experiment on OVCAR-3; 20.3 µM (inactive) with OVCAR-4; 25.9 µM (inactive) in the experiment on RPMI-8226; 15.6 µM (inactive) with SF-295. Also, the GI50 with SK-MEL-2 is 19.2 µM (inactive); in the experiment on SK-MEL-5, 25.8 µM (inactive); in the experiment on SK-OV-3, 19.1 µM (inactive); with SNB-75, 16.9 µM (inactive); in the experiment with T47D it was 19.5 µM (inactive); in the experiment with UACC-257 it was 15.8 µM (inactive).
